The record followed here is patent publication US11427549B2, “Pyrimidinyloxy benzo-fused compounds as herbicides” (FMC Corporation, priority 2017, dated 2022).

Data set [1] relates to foxtail, green (green foxtail, Setaria viridis). The experiment in a line: Test A postemergence, foxtail, green. It counts as in vivo. As to conditions: Setaria, post-emergence, 240 h, 0 to 100 scale (0 no effect, 100 complete control), read-out: Plant response rating, Foxtail, Green; for pest or weed control at 31 g/ha: 31 g ai/ha; for pest or weed control at 125 g/ha: 125 g ai/ha. The source says: (§1) Seeds of plant species selected from barnyardgrass (Echinochloa crus-galli), kochia (Kochia scoparia), ragweed (common ragweed, Ambrosia elatior), ryegrass, Italian (Italian ryegrass, Lolium multiflorum), foxtail, giant (giant foxtail, Setaria faberii), foxtail, green (green foxtail, Setaria viridis) and pigweed (Amaranthus retroflexus) were planted into a blend of loam soil and sand and treated preemergence with a directed soil spray using test chemicals formulated in a non-phytotoxic solvent mixture which included a surfactant.
(§2) At the same time, plants selected from these weed species and also wheat (Triticum aestivum), corn (Zea mays), blackgrass (Alopecurus myosuroides), and galium (catchweed bedstraw, Galium aparine) were planted in pots containing the same blend of loam soil and sand and treated with postemergence applications of test chemicals formulated in the same manner. Plants ranged in height from 2 to 10 cm and were in the one- to two-leaf stage for the postemergence treatment. Treated plants and untreated controls were maintained in a greenhouse for approximately 10 days, after which time all treated plants were compared to untreated controls and visually evaluated for injury. […] A dash (-) response means no test result.

Data set [2] deals with foxtail, giant (giant foxtail, Setaria faberii). In words: Test A preemergence, foxtail, giant. The format is in vivo. The settings on record: Setaria faberi, pre-emergence, 240 h, 0 to 100 scale (0 no effect, 100 complete control), read-out: Plant response rating, Foxtail, Giant; for pest or weed control at 31 g/ha: 31 g ai/ha; for pest or weed control at 125 g/ha: 125 g ai/ha.
Description: as §1, §2

For data set [3] the test system is unchanged. The experiment in a line: Test A postemergence, foxtail, giant. The format is in vivo. As to conditions: Setaria faberi, post-emergence, 240 h, 0 to 100 scale (0 no effect, 100 complete control), read-out: Plant response rating, Foxtail, Giant; for pest or weed control at 31 g/ha: 31 g ai/ha; for pest or weed control at 125 g/ha: 125 g ai/ha.
Description: as §1, §2

Turning to `FC(F)(F)CCC1OCc2cccc(Oc3ncc(Cl)cn3)c21` (centres unmarked) [Compound 8, 5-Chloro-2-[[1,3-dihydro-3-(3,3,3-trifluoropropyl)-4-isobenzofuranyl]oxy]pyrimidine], in data set [1], the pest or weed control at 31 g/ha came out at 20% and the pest or weed control at 125 g/ha came to 70%.
Taken in the same sequence, the figures for `FC(F)(F)CCCC1CCc2cccc(Oc3ncc(Cl)cn3)c21` (centres unmarked) [Compound 9, 5-Chloro-2-[[2,3-dihydro-3-(4,4,4-trifluorobutyl)-1H-inden-4-yl]oxy]pyrimidine] were 20% and 60%.
The like results for `OC1CC(CCCC(F)(F)F)c2c(Oc3ncc(Cl)cn3)cccc21` (centres unmarked) [Compound 10, 4-[(5-Chloro-2-pyrimidinyl)oxy]-2,3-dihydro-3-(4,4,4-trifluorobutyl)-1H-inden-1-ol] were, in that order, 10% and 50%.
Turning to `O=C1CC(CCC(F)(F)F)c2c(Oc3ncc(Cl)cn3)cccc21` (centres unmarked) [Compound 11, 4-[(5-Chloro-2-pyrimidinyl)oxy]-2,3-dihydro-3-(3,3,3-trifluoropropyl)-1H-inden-1-one], in data set [1], the pest or weed control at 31 g/ha is 0% and the pest or weed control at 125 g/ha is 10%.
The like results for `CN1C(=O)c2cccc(Oc3ncc(Cl)cn3)c2C1CCCC(F)(F)F` (centres unmarked) [Compound 12, 4-[(5-Chloro-2-pyrimidinyl)oxy]-2,3-dihydro-2-methyl-3-(4,4,4-trifluorobutyl)-1H-isoindol-1-one] were, in that order, 0% and 10%.
Taken in the same sequence, the figures for `O=C1NC(CCCC(F)(F)F)c2c(Oc3ncc(Cl)cn3)cccc21` (centres unmarked) [Compound 13, 4-[(5-Chloro-2-pyrimidinyl)oxy]-2,3-dihydro-3-(4,4,4-trifluorobutyl)-1H-isoindol-1-one] were 0% and 0%.
Take `OC1(CCC(F)(F)F)CCc2cccc(Oc3ncc(Cl)cn3)c21` (centres unmarked) [Compound 14, 7-[(5-Chloro-2-pyrimidinyl)oxy]-2,3-dihydro-1-(3,3,3-trifluoropropyl)-1H-inden-1-ol]: in data set [1], the pest or weed control at 125 g/ha was 0%. Also, the pest or weed control at 500 g/ha in data set [1] (500 g ai/ha) amounted to 50%.
One may read the melting point as the temperature, or range, at which the solid turns liquid. In the case of `O=C1Cc2cccc(Oc3ncc(Cl)cn3)c2C(CCCC(F)(F)F)O1` (centres unmarked) [Compound 17, 8-[(5-Chloro-2-pyrimidinyl)oxy]-1,4-dihydro-1-(4,4,4-trifluorobutyl)-3H-2-benzopyran-3-one], the melting point is 125 to 129 °C. Besides, in data set [2], the pest or weed control at 31 g/ha stood at 10% and the pest or weed control at 125 g/ha was determined as 70%. In data set [3], the pest or weed control at 31 g/ha was 20% and the pest or weed control at 125 g/ha was determined as 40%.
The molecule `O=C1O[C@@H](CCC(F)(F)F)c2c(Oc3ncc(Cl)cn3)cccc21` [Compound 18, (3S)-4-[(5-Chloro-2-pyrimidinyl)oxy]-3-(3,3,3-trifluoropropyl)-1(3H)-isobenzofuranone] returned a melting point of 99 to 101 °C. Further, in data set [2], the pest or weed control at 31 g/ha came out at 0% and the pest or weed control at 125 g/ha was 0%. In addition, in data set [3], the pest or weed control at 31 g/ha worked out at 0% and the pest or weed control at 125 g/ha turned out to be 0%.
The molecule `O=C1O[C@H](CCC(F)(F)F)c2c(Oc3ncc(Cl)cn3)cccc21` [Compound 19, (3R)-4-[(5-Chloro-2-pyrimidinyl)oxy]-3-(3,3,3-trifluoropropyl)-1(3H)-isobenzofuranone] registered a melting point of 94 to 99 °C. In data set [2], the pest or weed control at 31 g/ha came out at 100% and the pest or weed control at 125 g/ha came to 100%. In data set [3], the pest or weed control at 31 g/ha is 60% and the pest or weed control at 125 g/ha worked out at 90%.
Turning to `O=C1OC(CCC(F)(F)F)Cc2c(Oc3ncc(Cl)cn3)cccc21` (centres unmarked) [Compound 23, 5-[(5-Chloro-2-pyrimidinyl)oxy]-3,4-dihydro-3-(3,3,3-trifluoropropyl)-1H-2-benzopyran-1-one], the melting point is 117 to 121 °C. In data set [2], the pest or weed control at 31 g/ha is 0% and the pest or weed control at 125 g/ha worked out at 40%. In data set [3], the pest or weed control at 31 g/ha was 0% and the pest or weed control at 125 g/ha was 10%.
`O=C1Cc2cccc(Oc3ncc(Cl)cn3)c2C(CCC(F)(F)F)O1` (centres unmarked) [Compound 28, 8-[(5-Chloro-2-pyrimidinyl)oxy]-1,4-dihydro-1-(3,3,3-trifluoropropyl)-3H-2-benzopyran-3-one] yielded a melting point of 122 to 126 °C. In data set [2], the pest or weed control at 31 g/ha worked out at 10% and the pest or weed control at 125 g/ha came out at 100%. Further, in data set [3], the pest or weed control at 31 g/ha was 10% and the pest or weed control at 125 g/ha was determined as 20%.
`O=C1OC(CCCCC(F)(F)F)Cc2c(Oc3ncc(Cl)cn3)cccc21` (centres unmarked) [Compound 31, 5-[(5-Chloro-2-pyrimidinyl)oxy]-3,4-dihydro-3-(5,5,5-trifluoropentyl)-1H-2-benzopyran-1-one] gave a melting point of 93 to 97 °C. Moreover, in data set [2], the pest or weed control at 31 g/ha was 0% and the pest or weed control at 125 g/ha worked out at 0%. Also, in data set [3], the pest or weed control at 31 g/ha was found to be 0% and the pest or weed control at 125 g/ha turned out to be 0%.
Molecule `CCCC1OC(=O)Cc2cccc(Oc3ncc(Cl)cn3)c21` (centres unmarked) [Compound 35, 8-[(5-Chloro-2-pyrimidinyl)oxy]-1,4-dihydro-1-propyl-3H-2-benzopyran-3-one] had a melting point of 136 to 140 °C. For the same molecule, in data set [1], the pest or weed control at 31 g/ha was found to be 10% and the pest or weed control at 125 g/ha was found to be 10%.
